Test results taken from PMC6095626, “Screening of the Pathogen Box for inhibitors with dual efficacy against Giardia lamblia and Cryptosporidium parvum” (PLoS Neglected Tropical Diseases, 2018).

How the values were obtained:
[1] = system: C. parvum (UGA1 Nluc expressing strain in HCT-8 cells); experiment: microbe, parasite or virus in culture; format: cell-based, Cryptosporidium parvum; details: initial Pathogen Box screen, single concentration 10 µM, inhibition compared to DMSO wells
Method in brief: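 Parasite growth quantified by NanoLuc luminescence from lysed infected HCT-8 cells, with EC50 fitted from dose curves. Compounds, single-dose 10 μM or serially diluted, were added to confluent 48 h monolayers before infection with bleached UGA1 Nluc oocysts.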

[2] = system: G. lamblia trophozoites (luciferase expressing, WBC6); experiment: microbe, parasite or virus in culture; format: cell-based, Giardia lamblia; details: initial Pathogen Box screen, single concentration 16 µM, inhibition compared to DMSO wells
Method in brief: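 Incubation ran 24 h at 37 °C under anaerobic conditions, with compound added in equal volume to trophozoites (WBC6, luciferase-expressing, 250,000 cells/mL). Bioluminescence was the read-out, cross-checked by MOXI Z counts on a duplicate plate; metronidazole served as control (1:2 dilutions from 40 μM).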

SMILES	Crypto (10 uM) Mean % inhibition [1]	Giardia (16 uM) Mean % inhibition [2]
Cn1ncc2c(N3CCOCC3)nc(NCCc3c[nH]c4ccccc34)nc21 [MMV676382]	83%	60%
CCC(Sc1nc2ccccc2o1)C(=O)Nc1nccs1 (stereo not drawn) [MMV676383]	57%	88%
N#Cc1nc(-c2ccccc2F)oc1NCCc1ccccc1 [MMV676384]	40%	21%
Cc1cccc(Cn2ccc(NC(=O)c3ccc4c(c3)OCO4)n2)c1 [MMV676386]	53%	57%
COc1cccc(-n2nnnc2S(=O)(=O)Cc2ccccc2)c1 [MMV676388]	67%	38%
O=C(c1n[nH]c2c1CCCC2)N1CCN(Cc2ccc3c(c2)OCO3)CC1 [MMV676389]	X* (Mean or standard deviation are negative but not significantly different from the control to be a growth promoter)	66%
CCS(=O)(=O)N(Cc1ccco1)Cc1cc2ccc(C)cc2[nH]c1=O [MMV676398]	X* (Mean or standard deviation are negative but not significantly different from the control to be a growth promoter)	22%
c1coc(CNc2nc(N3CCCCC3)nc3ccccc23)c1 [MMV676401]	48%	76%
CC(C)n1ncc2c(C(=O)NCC(c3cccs3)N3CCOCC3)cc(-c3ccccc3)nc21 (stereo not drawn) [MMV676406]	X* (Mean or standard deviation are negative but not significantly different from the control to be a growth promoter)	34%
O=C(COc1cccc(F)c1)Nc1nc(-c2ccccn2)cs1 [MMV676409]	67%	X* (Mean or standard deviation are negative but not significantly different from the control to be a growth promoter)
CC(Oc1ccccc1)C(=O)Nc1nc(-c2ccccn2)cs1 (stereo not drawn) [MMV676411]	86%	16%
N#Cc1nc(-c2ccccc2)oc1S(=O)(=O)c1ccc(Cl)cc1 [MMV676412]	77%	49%
Cc1ccc(NC(=O)CC2COc3ccccc3O2)cc1Cl (stereo not drawn) [MMV676431]	X* (Mean or standard deviation are negative but not significantly different from the control to be a growth promoter)	18%
Cc1ccc2nc(Cl)c(CNCc3cccs3)cc2c1 [MMV676439]	81%	70%
CC(C)c1ncc(-c2ccncc2)c(C2CCC(CNC(=O)c3cccnc3)CC2)n1 (stereo not drawn) [MMV676442]	74%	12%
O=C(NC1CCCCC1)N1CCN(Cc2ccc3c(c2)OCO3)CC1 [MMV676444]	67%	30%
CCCn1c(CNc2ccccc2O)nc2ccccc21 [MMV676445]	X* (Mean or standard deviation are negative but not significantly different from the control to be a growth promoter)	13%
CCc1nc2ccccc2n1CC(O)COc1cc(C)ccc1Cl (stereo not drawn) [MMV676449]	37%	46%
CCOC(=O)c1cc(-c2csc(Nc3c(C)cc(C)cc3C)n2)on1 [MMV676461]	76%	31%
NC(CC(=O)c1ccc(Cl)cc1Cl)C(Cl)(Cl)Cl (stereo not drawn) [MMV676468]	X* (Mean or standard deviation are negative but not significantly different from the control to be a growth promoter)	55%
CCOc1ccc(OCC(=O)Nc2cc(C)cc(C)c2)cc1 [MMV676470]	X* (Mean or standard deviation are negative but not significantly different from the control to be a growth promoter)	12%
COc1cccc(OC)c1C(=O)Nc1ccc(Cl)c(-c2nc3ccccc3s2)c1 [MMV676472]	X* (Mean or standard deviation are negative but not significantly different from the control to be a growth promoter)	28%
COc1ccccc1OCCCCn1c(C2CC2)nc2ccccc21 [MMV676474]	X* (Mean or standard deviation are negative but not significantly different from the control to be a growth promoter)	3.27%
Cc1cc(C)cc(COc2ccc3c(C)c(CCC(=O)O)c(=O)oc3c2C)c1 [MMV676476]	X* (Mean or standard deviation are negative but not significantly different from the control to be a growth promoter)	35%
